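Method: 48-hour compound exposure of cells in 96-well plates, five concentrations, linear interpolation of endpoints. The concentration for full growth arrest is given as TGI.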
Key:
Experiment in all cases: inhibition of tumour cell growth, NCI panel, 48 h
SF-268 CNS = system: SF-268 CNS
HS 578T breast = system: HS 578T breast
UACC-257 melanoma = system: UACC-257 melanoma
CCRF-CEM leukemia = system: CCRF-CEM leukemia
U251 CNS = system: U251 CNS
MDA-N = system: MDA-N
SF-295 CNS = system: SF-295 CNS
SK-MEL-2 melanoma = system: SK-MEL-2 melanoma
SNB-75 CNS = system: SNB-75 CNS
TK-10 renal = system: TK-10 renal
NCI-H23 lung = system: NCI-H23 lung
ACHN renal = system: ACHN renal
OVCAR-5 ovarian = system: OVCAR-5 ovarian
HCC-2998 colon = system: HCC-2998 colon
NCI/ADR-RES ovarian = system: NCI/ADR-RES ovarian
SK-MEL-28 melanoma = system: SK-MEL-28 melanoma
SW-620 colon = system: SW-620 colon
MDA-MB-435 = system: MDA-MB-435
MALME-3M melanoma = system: MALME-3M melanoma
SR leukemia = system: SR leukemia
KM12 colon = system: KM12 colon
OVCAR-4 ovarian = system: OVCAR-4 ovarian
BT-549 breast = system: BT-549 breast
HCT-15 colon = system: HCT-15 colon
M14 melanoma = system: M14 melanoma
NCI-H522 lung = system: NCI-H522 lung
K-562 leukemia = system: K-562 leukemia
RPMI-8226 leukemia = system: RPMI-8226 leukemia
A498 renal = system: A498 renal
OVCAR-8 ovarian = system: OVCAR-8 ovarian
UACC-62 melanoma = system: UACC-62 melanoma
MOLT-4 leukemia = system: MOLT-4 leukemia
DU-145 prostate = system: DU-145 prostate
SNB-19 CNS = system: SNB-19 CNS
786-0 renal = system: 786-0 renal
UO-31 renal = system: UO-31 renal
CAKI-1 renal = system: CAKI-1 renal
PC-3 prostate = system: PC-3 prostate
A549 NSCLC = system: A549 NSCLC
SF-539 CNS = system: SF-539 CNS
IGROV1 ovarian = system: IGROV1 ovarian
HT29 colon = system: HT29 colon
MDA-MB-231 breast = system: MDA-MB-231 breast
RXF 393 renal = system: RXF 393 renal
T-47D breast = system: T-47D breast
MCF7 breast = system: MCF7 breast
HCT-116 colon = system: HCT-116 colon
HOP-62 NSCLC = system: HOP-62 NSCLC
COLO 205 colon = system: COLO 205 colon
NCI-H460 lung = system: NCI-H460 lung
SK-OV-3 ovarian = system: SK-OV-3 ovarian
EKVX NSCLC = system: EKVX NSCLC
SN12C renal = system: SN12C renal
OVCAR-3 ovarian = system: OVCAR-3 ovarian
LOX IMVI melanoma = system: LOX IMVI melanoma
HOP-92 NSCLC = system: HOP-92 NSCLC
NCI-H226 lung = system: NCI-H226 lung
SK-MEL-5 melanoma = system: SK-MEL-5 melanoma

`COc1cc([C@@]23OC[C@@H]4[C@@H](OC[C@@H]42)c2cc4c(cc23)OCO4)cc(OC)c1OC` gave a TGI (SF-268 CNS) greater than 100 µM, a TGI (HS 578T breast) of 10.5 µM and a TGI (UACC-257 melanoma) greater than 100 µM. The TGI (CCRF-CEM leukemia) was greater than 100 µM, the TGI (U251 CNS) was greater than 74.5 µM and the TGI (MDA-N) was greater than 100 µM. The TGI (SF-295 CNS) was greater than 100 µM, the TGI (SK-MEL-2 melanoma) was 62.8 µM and the TGI (SNB-75 CNS) was greater than 100 µM. For the same compound, the TGI (TK-10 renal) was greater than 100 µM, the TGI (NCI-H23 lung) was greater than 100 µM and the TGI (ACHN renal) was greater than 100 µM. For the same compound, the TGI (OVCAR-5 ovarian) was greater than 100 µM, the TGI (HCC-2998 colon) was 0.0241 µM and the TGI (NCI/ADR-RES ovarian) was less than 0.01 µM. The TGI (SK-MEL-28 melanoma) was greater than 100 µM, the TGI (SW-620 colon) was greater than 100 µM and the TGI (MDA-MB-435) was greater than 100 µM. It also gave a TGI (MALME-3M melanoma) greater than 100 µM, a TGI (SR leukemia) greater than 77 µM and a TGI (KM12 colon) greater than 100 µM. It also gave a TGI (OVCAR-4 ovarian) greater than 100 µM, a TGI (BT-549 breast) greater than 66.4 µM and a TGI (HCT-15 colon) greater than 100 µM. It also gave a TGI (M14 melanoma) greater than 100 µM, a TGI (NCI-H522 lung) of less than 0.01 µM and a TGI (K-562 leukemia) greater than 100 µM. The TGI (RPMI-8226 leukemia) was greater than 77.1 µM, the TGI (A498 renal) was 15.1 µM and the TGI (OVCAR-8 ovarian) was greater than 100 µM. It also gave a TGI (UACC-62 melanoma) greater than 100 µM, a TGI (MOLT-4 leukemia) greater than 100 µM and a TGI (DU-145 prostate) greater than 100 µM. It also gave a TGI (SNB-19 CNS) greater than 100 µM, a TGI (786-0 renal) greater than 100 µM and a TGI (UO-31 renal) greater than 100 µM. For the same compound, the TGI (CAKI-1 renal) was greater than 100 µM, the TGI (PC-3 prostate) was greater than 100 µM and the TGI (A549 NSCLC) was greater than 100 µM. It also gave a TGI (SF-539 CNS) greater than 47.1 µM, a TGI (IGROV1 ovarian) greater than 100 µM and a TGI (HT29 colon) greater than 100 µM. The TGI (MDA-MB-231 breast) was less than 0.01 µM, the TGI (RXF 393 renal) was greater than 100 µM and the TGI (T-47D breast) was greater than 100 µM. It also gave a TGI (MCF7 breast) greater than 100 µM, a TGI (HCT-116 colon) greater than 100 µM and a TGI (HOP-62 NSCLC) greater than 100 µM.

Compound `CC1Cc2cc(O)c(O)cc2-c2cc(O)c(O)cc2CC1C` (stereo not given) has a TGI (SF-268 CNS) greater than 100 µM, a TGI (COLO 205 colon) of 32.1 µM and a TGI (NCI-H460 lung) of 42.7 µM. It also gave a TGI (HS 578T breast) of 61.7 µM, a TGI (UACC-257 melanoma) of 29.1 µM and a TGI (CCRF-CEM leukemia) greater than 100 µM. It also gave a TGI (U251 CNS) of 32.6 µM, a TGI (MDA-N) of 11.7 µM and a TGI (SF-295 CNS) of 20.8 µM. For the same compound, the TGI (SK-MEL-2 melanoma) was 15 µM, the TGI (SNB-75 CNS) was greater than 100 µM and the TGI (TK-10 renal) was 86.4 µM. For the same compound, the TGI (NCI-H23 lung) was 38.6 µM, the TGI (ACHN renal) was 87.1 µM and the TGI (OVCAR-5 ovarian) was 45.6 µM. The TGI (HCC-2998 colon) was 43.1 µM, the TGI (NCI/ADR-RES ovarian) was 38.4 µM and the TGI (SK-MEL-28 melanoma) was 43.6 µM. The TGI (SW-620 colon) was 42.5 µM, the TGI (MDA-MB-435) was 10.5 µM and the TGI (MALME-3M melanoma) was 20.6 µM. It also gave a TGI (SR leukemia) of 33 µM, a TGI (KM12 colon) of 14 µM and a TGI (SK-OV-3 ovarian) greater than 100 µM. The TGI (OVCAR-4 ovarian) was 33.9 µM, the TGI (HCT-15 colon) was 36.1 µM and the TGI (M14 melanoma) was 29.7 µM. The TGI (NCI-H522 lung) was 49.8 µM, the TGI (K-562 leukemia) was 39.5 µM and the TGI (RPMI-8226 leukemia) was greater than 100 µM. For the same compound, the TGI (A498 renal) was 56.8 µM, the TGI (OVCAR-8 ovarian) was 53.3 µM and the TGI (UACC-62 melanoma) was 19.3 µM. For the same compound, the TGI (MOLT-4 leukemia) was 32.3 µM, the TGI (EKVX NSCLC) was 96.2 µM and the TGI (DU-145 prostate) was greater than 100 µM. It also gave a TGI (SN12C renal) of 49 µM, a TGI (OVCAR-3 ovarian) of 29.3 µM and a TGI (SNB-19 CNS) of 96.2 µM. It also gave a TGI (786-0 renal) of 39.9 µM, a TGI (UO-31 renal) of 85.3 µM and a TGI (CAKI-1 renal) of 48.3 µM. For the same compound, the TGI (PC-3 prostate) was 61.5 µM, the TGI (A549 NSCLC) was 71.1 µM and the TGI (SF-539 CNS) was 19.6 µM. The TGI (IGROV1 ovarian) was 47 µM, the TGI (HT29 colon) was 63.9 µM and the TGI (MDA-MB-231 breast) was 24.5 µM. For the same compound, the TGI (LOX IMVI melanoma) was 23.1 µM, the TGI (HOP-92 NSCLC) was 46.7 µM and the TGI (RXF 393 renal) was 56.4 µM. It also gave a TGI (NCI-H226 lung) of 67.8 µM, a TGI (SK-MEL-5 melanoma) of 17.4 µM and a TGI (T-47D breast) of 63.7 µM. The TGI (MCF7 breast) was 37.1 µM, the TGI (HCT-116 colon) was 34.5 µM and the TGI (HOP-62 NSCLC) was 41.9 µM.

Reference: PubChem BioAssay (NCI)
